In US9023852B2, “1, 2, 4-thiadiazol-5-ylpiperazine derivatives useful in the treatment of neurodegenerative diseases” (Remynd NV, priority 2011, dated 2015):

How the values were obtained:
M17—3TAU(P301L) cells = assay: Neuroblastoma tauopathy model: inhibition of TAU-induced cytotoxicity (LDH); assay type: cell-based; conditions: Homo sapiens, 168 h; inhibition of TAU-induced toxicity (LDH), 7 days differentiation with retinoic acid
Summary of the method: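 BE-M17 neuroblastoma cells stably expressing human TAU-P301L, differentiated with RA (2.5 μM in added medium) for 7 days at 37 °C with compounds at a range of concentrations. Cytotoxicity as supernatant LDH over total LDH (Cytotox 96); EC50 from dose-dependent inhibition curve.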

[1] = Microsomal stability assay (intrinsic clearance), rat liver microsomes; assay type: in vitro ADME; conditions: rat in vitro microsomes, second value of Hum/Rat pair
Experimental: (§1) Microsomal Stability Testing—Assay Description
(§2) The microsomal stability assay measures the rate of disappearance of a test compound from an incubation containing human or animal liver microsomes and metabolic cofactors (typically NADPH). The assay is primarily used for ranking the relative CYP-mediated metabolism propensities of compounds within a chemical series and as a guide to selecting sufficiently stable compounds for pharmacokinetics and pharmacodynamics experiments. [In addition to CYPs, microsomally located enzymes which also make use of NADPH (such as […]) and those which require no cofactors (such as carboxylesterases) are active.]
(§3) Incubations are performed in 96-well deep-well plates with a final incubation volume of 600 μL. Incubations contain (finally) 1-2 μM test compound, 0.5 mg/mL liver microsomes (typically human, rat or mouse) and NADPH regenerating system. 50 μL aliquots are removed after 1, 3, 6, 9, 15, 25, 35 and 45 minutes and quenched in 150 μL acetonitrile containing internal standard. Samples are then cooled and centrifuged before analysis by LC-MS/MS.
(§4) Log peak area ratio (test compound peak area/internal standard peak area) is plotted against incubation time and a linear fit made to the data with emphasis upon the initial rate of compound disappearance. The slope of the fit is then used to calculate the intrinsic clearance: Clint(μL/min/mg)=−slope(min^−1)*1000/[protein concentration (mg/mL)]

[2] = Microsomal stability assay (intrinsic clearance), human liver microsomes; assay type: in vitro ADME; conditions: human in vitro microsomes, first value of Hum/Rat pair
Experimental: as §1, §2, §3, §4

microsomal CLint [1]: 23 µL/min/mg
microsomal CLint [2]: 12 µL/min/mg
SMILES: Fc1cccc(-c2nsc(N3CCN(CCc4ccc(Cl)cc4)CC3)n2)c1 [Example 88, 1-[2-(4-Chloro-phenyl)-ethyl]-4-[3-(3-fluoro-phenyl)-[1,2,4]thiadiazol-5-yl]-piperazine]
EC50 (M17—3TAU(P301L) cells): 121 nM
